Test results reported in patent US20200339691A1, “PROTEINACEOUS MOLECULES AND USES THEREFOR” (priority 2018, published 2020).
Entries after “also recorded” stand apart in the source; their conditions may differ. Where a SMILES comes first, the peptide text is derived from it. The star is where a group is joined. Myristoyl = CCCCCCCCCCCCCC(=O)*

Tests used:
PD-L1 [1] = assay: Immunofluorescence of PD-L1 in MDA-MB-231 cells, Example 9; type: cell-based, human; details: 50 μM, 72 hours
Method: (§1) 1×10^4 MDA-MB-231 cells were seeded onto coverslips in 12 well plates with DMEM media. Cells were treated with 50 μM P1, P2, P3 or P4 (synthesized in accordance with Example 5) or vehicle (water) for 72 hours. Cells were fixed with 3.7% formaldehyde and permeabilized with 2% Triton-X-100, then probed with primary mouse antibodies to CSV, DMNT1, H3K9me3 or 5-methylcytosine; primary goat antibodies to SNAI1, SETDB1 or ABCB5; or primary rabbit antibodies to PD-L1, EGFR, EHMT2; followed by the corresponding secondary antibody conjugated to anti-mouse Alexa-Fluor 568, anti-goat Alexa-Fluor 633 or anti-rabbit Alexa-Fluor 488. Confocal laser scanning microscopy was used to measure the TFI, TNFI and TCFI as described above. At least 20 individual cells were analyzed per sample.

[2] = tested on: cell surface vimentin (CSV); assay: Immunofluorescence of CSV in MDA-MB-231 cells, Example 14; type: cell-based, human; details: 50 μM, 72 hours
Method: (§2) 1×10^4 MDA-MB-231 cells were treated with 50 μM P1, P2, P3 (synthesized in accordance with Example 5) or vehicle (water) for 72 hours. Cells were fixed with 3.7% formaldehyde and permeabilized with 2% Triton-X-100, then probed with a primary rabbit antibody to PD-L2, primary goat antibody to PD-L1 and primary mouse antibody to CSV, followed by the corresponding secondary antibody conjugated to anti-mouse Alexa-Fluor 568, anti-goat Alexa-Fluor 633 or anti-rabbit Alexa-Fluor 488. Confocal laser scanning microscopy was used to measure the TNFI and TCFI as described above. At least 20 individual cells were analyzed per sample.

SNAI1 = assay: Immunofluorescence of SNAI1 in MDA-MB-231 cells; type: cell-based, human; details: 50 μM, 72 hours
Method: as §1

[3] = tested on: CD44^hiCD24^lo CSCs in MCF7 cells; assay: FACS analysis of CD44^hiCD24^lo CSCs in MCF7 cells; type: cell-based, human; details: 50 μM peptide, 48 hours
Method: (§3) P1 Analogues were synthesized in accordance with the procedure of Example 5. 4×10^4 MDA-MB-231 cells or 1×10^4 induced or non-induced MCF7 cells were seeded in a 12 well plate with 1 mL complete media overnight. Induced MCF7 cells were prepared by stimulating cells with PMA/TGF-β and incubating for 12 hours. Cells were treated with 50 μM test peptide (dissolved in water) for 48 hours. Cells were then washed twice with 1 mL PBS and harvested by trypsinisation. Non-adherent cells were removed during the washing steps. Adherent cells were collected, and were subsequently stained with anti-human CD44, CD24 and Hoechst 33342 antibodies on ice for 30 mins. FACS was performed on BD FACS LSRII to measure the percentage of CD44^hiCD24^lo CSCs by dividing CD44^hiCD24^lo events by total live cell counts (Hoechst negative population) (as described in Fillmore and Kuperwasser (2007) Breast Cancer Res, 9: 303). The percentage of viable cells was calculated by dividing total live cell events by total single cells as described previously (Siemann and Keng (1986), Cancer Res, 46: 3556-3559).

SETDB1 = assay: Immunofluorescence of SETDB1 in MDA-MB-231 cells; type: cell-based, human; details: 50 μM, 72 hours
Method: Cells were treated with 50 μM P1, P2, P3 or P4 (synthesized in accordance with Example 5) or vehicle (water) for 72 hours. […] Confocal laser scanning microscopy was used to measure the […] and TCFI as described above. At least 20 individual cells were analyzed per sample.

MDA-MB-231 cells [4] = details: 72 h
Method: The effect of P1, P2 and P3 (synthesized in accordance with Example 5) on MDA-MB-231 cell proliferation was assessed using a WST-1 proliferation assay.
MCF7 cells were transfected with a plasmid containing the wild-type PD-L1 sequence, a plasmid containing a PD-L1 [K263Q] mutant (Mut1) or vector only (VO) using the NEON electroporation transfection system (Life Technologies). Transfected cells were used for the colorimetric based WTS-1 proliferation assay (Sigma-Aldrich) to examine the effect of transfection on MCF7 cell proliferation. The WTS-1 proliferation assay was also used to determine the effect of treatment with P1, P2 and P3 (synthesized in accordance with Example 5) on MDA-MB-231 cell proliferation. The stable tetrazolium salt WST-1 is cleaved to a soluble formazan by a complex cellular mechanism that occurs primarily at the cell surface. This bioreduction is largely dependent on the glycolytic production of NAD(P)H in viable cells. Therefore, the amount of formazan dye formed directly correlates to the number of metabolically active cells in the culture. Cells grown in a 96-well tissue culture plate were treated with vehicle only or 6.25, 12.5, 25, 50, 100, 200 or 400 μM of P1, P2 or P3 for 72 hours at 37° C. in a humidified CO2 incubator. Cells were then incubated with the WST-1 reagent for 0.5-4 hours. Following incubation, the formazan dye formed is quantitated with a scanning multi-well spectrophotometer (ELISA reader). The measured absorbance directly correlates to the number of viable cells.

MDA-MB-231 cells [5] = assay: FACS analysis of the cancer stem cell phenotype (CD44^high/CD24^low) in response to P1, P2 and P3; type: cell-based, human; details: 6.25-400 μM, 72 hours
Method: 5×10^4 MDA-MB-231 cells were seeded with 1 mL of complete DMEM in 12 well plates overnight. […] Samples were harvested by trypsinization followed by washing with DPBS containing 2% HI-FBS. FACS staining was performed using anti-human CD44-APC, anti-human CD24-PE, Hoechst and anti-human EpCAM antibody cocktails. Data was collected from a BD-FACSLSR-II flow cytometer. Treestar FlowJo was used for data analysis.

MCF7 cells = details: MCF7 cells, 50 μM peptide, 48 hours
Method: as §3

[6] = tested on: cell surface vimentin (CSV); assay: Immunofluorescence of CSV in MDA-MB-231 cells, Example 9; type: cell-based, human; details: 50 μM, 72 hours
Method: as §1

PD-L2 = assay: Immunofluorescence of PD-L2 in MDA-MB-231 cells; type: cell-based, human; details: 50 μM, 72 hours, relative to the control
Method: as §2

PD-L1 [7] = assay: Immunofluorescence of PD-L1 in MDA-MB-231 cells, Example 14; type: cell-based, human; details: 50 μM, 72 hours
Method: as §2

p300 = target: T1, p300 (Homo sapiens, UniProt Q09472); assay: Immunofluorescence of p300 localization in MDA-MB-231 cells; type: cell-based; details: 50 μM
T1 construct: endogenous in cells; host or cells: MDA-MB-231
T1 sequence (Q09472 whole entry): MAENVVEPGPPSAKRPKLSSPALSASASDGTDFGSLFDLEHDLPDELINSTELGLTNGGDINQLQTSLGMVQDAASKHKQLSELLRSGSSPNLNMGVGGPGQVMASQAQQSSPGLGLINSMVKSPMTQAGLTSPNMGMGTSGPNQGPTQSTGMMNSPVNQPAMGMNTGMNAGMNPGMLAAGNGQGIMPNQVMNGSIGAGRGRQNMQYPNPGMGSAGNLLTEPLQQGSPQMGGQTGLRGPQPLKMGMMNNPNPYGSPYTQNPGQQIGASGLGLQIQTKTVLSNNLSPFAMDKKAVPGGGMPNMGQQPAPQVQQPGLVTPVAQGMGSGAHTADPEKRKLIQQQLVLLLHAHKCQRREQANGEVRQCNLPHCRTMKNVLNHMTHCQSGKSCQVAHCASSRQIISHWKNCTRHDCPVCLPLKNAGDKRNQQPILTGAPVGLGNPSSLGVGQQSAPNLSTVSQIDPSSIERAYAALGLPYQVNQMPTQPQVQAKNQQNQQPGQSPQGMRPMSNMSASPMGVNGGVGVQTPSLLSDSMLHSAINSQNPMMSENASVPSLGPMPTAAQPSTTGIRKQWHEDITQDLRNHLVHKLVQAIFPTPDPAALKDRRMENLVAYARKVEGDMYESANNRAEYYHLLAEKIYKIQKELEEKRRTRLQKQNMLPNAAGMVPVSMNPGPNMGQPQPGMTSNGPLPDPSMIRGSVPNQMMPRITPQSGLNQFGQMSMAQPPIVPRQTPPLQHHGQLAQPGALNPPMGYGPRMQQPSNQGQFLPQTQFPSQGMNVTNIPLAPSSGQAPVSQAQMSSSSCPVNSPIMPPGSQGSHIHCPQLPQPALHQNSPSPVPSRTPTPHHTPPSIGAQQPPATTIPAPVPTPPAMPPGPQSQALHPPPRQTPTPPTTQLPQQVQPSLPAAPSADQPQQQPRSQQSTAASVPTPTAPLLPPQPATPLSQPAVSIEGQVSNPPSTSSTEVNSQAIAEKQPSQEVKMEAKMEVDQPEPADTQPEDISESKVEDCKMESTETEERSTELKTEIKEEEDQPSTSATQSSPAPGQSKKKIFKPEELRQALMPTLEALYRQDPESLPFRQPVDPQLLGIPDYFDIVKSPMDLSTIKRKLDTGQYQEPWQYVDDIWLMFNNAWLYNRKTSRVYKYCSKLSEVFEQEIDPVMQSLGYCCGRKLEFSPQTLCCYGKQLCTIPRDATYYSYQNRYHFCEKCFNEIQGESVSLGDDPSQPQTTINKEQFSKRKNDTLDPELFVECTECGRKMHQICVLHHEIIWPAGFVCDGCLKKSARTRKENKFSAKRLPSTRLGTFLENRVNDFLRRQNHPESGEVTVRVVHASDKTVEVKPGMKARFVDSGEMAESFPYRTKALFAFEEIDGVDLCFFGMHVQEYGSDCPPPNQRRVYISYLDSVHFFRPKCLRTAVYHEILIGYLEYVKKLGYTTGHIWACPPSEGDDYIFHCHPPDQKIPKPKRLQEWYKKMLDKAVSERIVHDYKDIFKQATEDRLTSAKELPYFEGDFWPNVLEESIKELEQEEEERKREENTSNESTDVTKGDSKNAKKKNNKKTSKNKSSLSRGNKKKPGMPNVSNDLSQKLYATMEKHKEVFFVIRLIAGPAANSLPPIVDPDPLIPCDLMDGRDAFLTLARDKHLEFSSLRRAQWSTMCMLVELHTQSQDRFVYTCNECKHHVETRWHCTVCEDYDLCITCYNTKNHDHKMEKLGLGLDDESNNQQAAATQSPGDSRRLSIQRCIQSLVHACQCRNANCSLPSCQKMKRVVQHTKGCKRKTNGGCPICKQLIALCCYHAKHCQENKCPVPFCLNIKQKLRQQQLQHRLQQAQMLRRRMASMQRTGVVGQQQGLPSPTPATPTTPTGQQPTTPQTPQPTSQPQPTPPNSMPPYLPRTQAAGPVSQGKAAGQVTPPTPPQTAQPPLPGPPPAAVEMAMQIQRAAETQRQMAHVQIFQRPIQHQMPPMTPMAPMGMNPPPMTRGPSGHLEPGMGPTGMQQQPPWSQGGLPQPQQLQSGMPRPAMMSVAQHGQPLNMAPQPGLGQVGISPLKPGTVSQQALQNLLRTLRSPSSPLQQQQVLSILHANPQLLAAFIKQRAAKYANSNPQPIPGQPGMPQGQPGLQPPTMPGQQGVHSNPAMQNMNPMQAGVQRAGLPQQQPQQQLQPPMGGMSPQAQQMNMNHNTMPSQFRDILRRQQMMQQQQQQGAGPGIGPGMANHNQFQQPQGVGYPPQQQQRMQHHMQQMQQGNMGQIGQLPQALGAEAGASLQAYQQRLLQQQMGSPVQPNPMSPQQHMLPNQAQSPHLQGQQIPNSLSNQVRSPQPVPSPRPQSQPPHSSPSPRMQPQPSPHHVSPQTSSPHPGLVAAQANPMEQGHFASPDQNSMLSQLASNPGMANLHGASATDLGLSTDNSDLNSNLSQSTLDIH
Method: The effect of P1, P2, P3 and P4 (synthesized in accordance with Example 5) on p300 localization was examined using confocal laser scanning microscopy. […] Cover slips were mounted on glass microscope slides with ProLong Diamond Antifade reagent (Life Technologies). Protein targets were localized by confocal laser scanning microscopy as described above. TNFI and PCC(r) were calculated using ImageJ software as previously described.

| SMILES | PD-L1 nuclear localization (PD-L1 [1]) | CSV expression [2] | expression of SNAI1 (SNAI1) | CD44^hiCD24^lo CSC % [3] [%] | COI/Single Cells/Live/CD44^hiCD24^lo CSCs Count [3] | expression / nuclear localization of SETDB1 (SETDB1) | IC50 (MDA-MB-231 cells [4]) [µM] | cancer stem cell phenotype (CD44^high/CD24^low) (MDA-MB-231 cells [5]) | % Viable Cells (MCF7 cells) [%] | COI Count (MCF7 cells) | COI/Single Cell Count (MCF7 cells) | COI/Single Cells/Live Count (MCF7 cells) | Total Count (MCF7 cells) | expression of CSV [6] | PD-L2 nuclear localization (PD-L2) | nuclear localization of PD-L1 (PD-L1 [7]) | p300 nuclear expression (p300) |
| --- | --- | --- | --- | --- | --- | --- | --- | --- | --- | --- | --- | --- | --- | --- | --- | --- | --- |
| CCCCCCCCCCCCCC(=O)N[C@@H](CC(C)C)C(=O)N[C@H](C(=O)N[C@@H](Cc1ccccc1)C(=O)N[C@H](C(=O)N[C@@H](Cc1ccccc1)C(=O)N[C@@H](CCCNC(=N)N)C(=O)N[C@@H](CC(C)C)C(=O)N[C@@H](CCCNC(=N)N)C(=O)N[C@@H](CCCCN)C(=O)NCC(=O)N[C@@H](CCCNC(=N)N)C(=O)N[C@@H](CCSC)C(=O)N[C@@H](CCSC)C(=O)N[C@@H](CC(=O)O)C(=O)N[C@H](C(=O)N[C@@H](CCCCN)C(=O)N[C@@H](CCCCN)C(N)=O)C(C)C)[C@@H](C)CC)[C@@H](C)O [Peptide P1, Myristoyl-LTFIFRLRKGRMMDVKK-NH2] (Myristoyl-LTFIFRLRKGRMMDVKK-NH2) | significantly inhibited | significantly inhibited | uniformly inhibited | 4.36 | 233 | significantly abrogated | 103 | significantly inhibited | 95.65 | 6567 | 5585 | 5342 | 10000 | uniformly inhibited | significantly inhibited | significantly inhibited | significantly decreased |
| CCCCCCCCCCCCCC(=O)N[C@@H](CC(C)C)C(=O)N[C@H](C(=O)N[C@@H](Cc1ccccc1)C(=O)N[C@H](C(=O)N[C@@H](Cc1ccccc1)C(=O)N[C@@H](CCCNC(=N)N)C(=O)N[C@@H](CC(C)C)C(=O)N[C@@H](CCCNC(=N)N)C(=O)N[C@@H](CCC(N)=O)C(=O)NCC(=O)N[C@@H](CCCNC(=N)N)C(=O)N[C@@H](CCSC)C(=O)N[C@@H](CCSC)C(=O)N[C@@H](CC(=O)O)C(=O)N[C@H](C(=O)N[C@@H](CCCCN)C(=O)N[C@@H](CCCCN)C(N)=O)C(C)C)[C@@H](C)CC)[C@@H](C)O [Peptide P2, Myristoyl-LTFIFRLRQGRMMDVKK-NH2] (Myristoyl-LTFIFRLRQGRMMDVKK-NH2) | significantly inhibited | significantly inhibited | uniformly inhibited | 2.82 | 123 | significantly abrogated | 564 | significantly inhibited | 97.19 | 5603 | 4482 | 4356 | 10000 | uniformly inhibited | significantly inhibited | significantly inhibited | significantly decreased |
| CCCCCCCCCCCCCC(=O)N[C@@H](CC(C)C)C(=O)N[C@H](C(=O)N[C@@H](Cc1ccccc1)C(=O)N[C@H](C(=O)N[C@@H](Cc1ccccc1)C(=O)N[C@@H](CCCNC(=N)N)C(=O)N[C@@H](CC(C)C)C(=O)N[C@@H](CCCNC(=N)N)C(=O)N[C@@H](CCCCNC(C)=O)C(=O)NCC(=O)N[C@@H](CCCNC(=N)N)C(=O)N[C@@H](CCSC)C(=O)N[C@@H](CCSC)C(=O)N[C@@H](CC(=O)O)C(=O)N[C@H](C(=O)N[C@@H](CCCCN)C(=O)N[C@@H](CCCCN)C(N)=O)C(C)C)[C@@H](C)CC)[C@@H](C)O [Peptide P3, Myristoyl-LTFIFRLRK(Ac)GRMMDVKK-NH2] (Myristoyl-LTFIFRLRK(Ac)GRMMDVKK-NH2) | significantly inhibited | significantly inhibited | uniformly inhibited | 3.26 | 162 | significantly abrogated | 542 | significantly inhibited; also recorded: greatest inhibition | 98.47 | 6007 | 5039 | 4962 | 10000 | uniformly inhibited | significantly inhibited | significantly inhibited | significantly decreased; also recorded: greatest effect |
